This experiment deals with primary HSTCL cells from a patient. In words: Ex vivo QPOP drug combination sensitivity, CellTiter-Glo cell viability (11 drugs at 3 doses, OACD). It is filed as cell-based, human.
The mark [1] stands for this setting: Homo sapiens, concentration used in the ex vivo QPOP experiment, read-out: IC15.
Where [2] appears, read: Homo sapiens, concentration used in the ex vivo QPOP experiment, read-out: IC30.
[3] abbreviates: output cell viability, 11 drugs at 3 doses.
The mark [4] stands for this setting: concentration used in the ex vivo QPOP experiment.

Like-named read-outs stand apart in the source and are kept apart here.

We go through eleven molecules from patent publication US20220367023A1, “Method for Predicting a Suitable Therapy” (National University of Singapore, priority 2019, published 2022).

Experimental: Tumor cells from an oncology patient sample are treated with a series of test drug combinations defined by Resolution IV Orthogonal Array Composite Design. This array of tests is used to derive coefficients for single drug and drug-drug interactions for all the drugs within the drug search set. These coefficients are used to calculate a predicted output of potential drug combinations (up to 4 drugs) from the drug search set. Patient-specific drug combinations are prioritized based on predicted output of single drug, 2-drug, 3-drug or 4-drug combinations.
In the current embodiment, primary patient sample that contains tumor cells, either from a blood sample or solid tumor biopsy, is collected. Tumor cells are isolated and seeded 2000 cells/well in Nunc™ 384-Well Clear Polystyrene Plates. In the examples used here, cell viability was performed using the CellTiter-Glo® Luminescent Cell Viability Assay following the manufacturer's instructions (Promega, Madison, Wis., USA).
Datasets for analysis by QPOP are built by ex vivo treatment of primary patient tumor cells with a series of drug combinations determined by orthogonal array composite design (OACD) to use the least number of combinations sufficient for factor screening and in-depth analyses, in concentrations that are at or below clinically approved doses (max Pk conc.), Table 1. […] In these examples here, the viability of cells exposed to the various drug combinations are the phenotypic output which is analyzed by the QPOP assay. The correlation of treatment combination (input) and viability (output) was fitted into a second-order quadratic equation. The coefficients of the second-order equation represent the correlation between the input, drug dose of the drug combination, and the output cell viability, allowing for optimizing drug combination. In the analysis, each drug combination was represented as a vector and coded dosages were used in MATLAB. The second-order quadratic equation is as follows:
where y represents the desired output, xn is the nth drug dosage, β0 is the intercept term, βn is the single-drug coefficient of the nth drug, βmn is the interaction coefficient between the mth and nth drugs, and βnn is the quadratic coefficient for the nth drug. […] The coefficients were calibrated using the data points in dose response assay of single drugs and drug combination (Table 2). To ensure the robustness and integrity of the assay, Z′ score is calculated after every QPOP analysis.

In the case of `CC(C)C[C@H](NC(=O)[C@H](Cc1ccccc1)NC(=O)c1cnccn1)B(O)O` [Bortezomib], under setting [1], the IC15 was 6 nM. Also, the IC30 under setting [2] was determined as 12 nM. The “Coefficient estimates of the second-order quadratic fit” value (“Coefficient estimates” below) under setting [3] is 5456.
Take `N.N.[Cl][Pt][Cl]` [Cisplatin]: for the setting “concentration used in the ex vivo QPOP experiment, read-out: IC15”, the IC15 was found to be 1500 nM. Where the note is “concentration used in the ex vivo QPOP experiment, read-out: IC30”, the IC30 came out at 3000 nM. Also, under setting [3], the “Coefficient estimates” value is −0.06756 and the “Estimate, single-drug coefficient of the second-order quadratic fit” value was 0.06189.
Regarding `O=P1(N(CCCl)CCCl)NCCCO1` (centres unmarked) [Cyclophosphamide], where the note is “Homo sapiens”, the IC15 amounted to 30000 nM and the IC30 came out at 60000 nM.
`Nc1ccn([C@@H]2O[C@H](CO)[C@@H](O)[C@@H]2O)c(=O)n1` [Cytarabine]: for the setting “Homo sapiens”, the IC15 turned out to be 233 nM and the IC30 stood at 466 nM.
For `C[C@@H]1C[C@H]2[C@@H]3CCC4=CC(=O)C=C[C@]4(C)[C@@]3(F)[C@@H](O)C[C@]2(C)[C@@]1(O)C(=O)CO` [Dexamethasone], under “Homo sapiens”, the IC15 is 60 nM and the IC30 came to 120 nM.
Regarding `COc1cccc2c1C(=O)c1c(O)c3c(c(O)c1C2=O)C[C@@](O)(C(=O)CO)C[C@@H]3O[C@H]1C[C@H](N)[C@H](O)[C@H](C)O1` [Doxorubucin], the IC15 under setting [1] was determined as 22.5 nM. Moreover, the IC30 under setting [2] was found to be 45 nM.
As to `COc1cc([C@@H]2c3cc4c(cc3[C@@H](O[C@@H]3O[C@@H]5CO[C@@H](C)O[C@H]5[C@H](O)[C@H]3O)[C@H]3COC(=O)[C@H]23)OCO4)cc(OC)c1O` [Etoposide], the IC15 under setting [1] is 283 nM. Besides, the IC30 under setting [2] came to 565 nM. Further, the “Coefficient estimates” value under setting [3] was −3.739.
On to `Nc1ccn([C@@H]2O[C@H](CO)[C@@H](O)C2(F)F)c(=O)n1` [Gemcitabine], for which the IC15 under setting [1] was determined as 7.79 nM. Also, the IC30 under setting [2] is 15.6 nM.
As for `O=P1(NCCCl)OCCCN1CCCl` (centres unmarked) [Ifosfamide], where the note is “Homo sapiens”, the IC15 is 15000 nM and the IC30 came out at 30000 nM. Moreover, the “Estimate, quadratic coefficient of the second-order quadratic fit” value under setting [3] was 0.001006.
Regarding `CN(Cc1cnc2nc(N)nc(N)c2n1)c1ccc(C(=O)N[C@@H](CCC(=O)O)C(=O)O)cc1` [Methotrexate], the IC15 under setting [1] was 300 nM. Moreover, the IC30 under setting [2] was found to be 600 nM.
L-asparaginase: under setting [4], the IC15 was found to be 0.3 IU/ml and the IC30 came to 0.6 IU/ml. Also, under setting [3], the “Coefficient estimates” value is 2.237 and the “Estimate, single-drug coefficient of the second-order quadratic fit” value is on record as −1.282.
